Experimental data as given in patent publication US20200291018A1, “TAM KINASE INHIBITORS” (SYROS PHARMACEUTICALS, INC., priority 2017, published 2020).

Experiments:
AXL = biological target: T1, AXL (Homo sapiens, UniProt P30530); test: TR-FRET kinase activity assay, AXL; format: biochemical; settings: ATP at Km, 60 minutes
T1 sequence (P30530 26-894): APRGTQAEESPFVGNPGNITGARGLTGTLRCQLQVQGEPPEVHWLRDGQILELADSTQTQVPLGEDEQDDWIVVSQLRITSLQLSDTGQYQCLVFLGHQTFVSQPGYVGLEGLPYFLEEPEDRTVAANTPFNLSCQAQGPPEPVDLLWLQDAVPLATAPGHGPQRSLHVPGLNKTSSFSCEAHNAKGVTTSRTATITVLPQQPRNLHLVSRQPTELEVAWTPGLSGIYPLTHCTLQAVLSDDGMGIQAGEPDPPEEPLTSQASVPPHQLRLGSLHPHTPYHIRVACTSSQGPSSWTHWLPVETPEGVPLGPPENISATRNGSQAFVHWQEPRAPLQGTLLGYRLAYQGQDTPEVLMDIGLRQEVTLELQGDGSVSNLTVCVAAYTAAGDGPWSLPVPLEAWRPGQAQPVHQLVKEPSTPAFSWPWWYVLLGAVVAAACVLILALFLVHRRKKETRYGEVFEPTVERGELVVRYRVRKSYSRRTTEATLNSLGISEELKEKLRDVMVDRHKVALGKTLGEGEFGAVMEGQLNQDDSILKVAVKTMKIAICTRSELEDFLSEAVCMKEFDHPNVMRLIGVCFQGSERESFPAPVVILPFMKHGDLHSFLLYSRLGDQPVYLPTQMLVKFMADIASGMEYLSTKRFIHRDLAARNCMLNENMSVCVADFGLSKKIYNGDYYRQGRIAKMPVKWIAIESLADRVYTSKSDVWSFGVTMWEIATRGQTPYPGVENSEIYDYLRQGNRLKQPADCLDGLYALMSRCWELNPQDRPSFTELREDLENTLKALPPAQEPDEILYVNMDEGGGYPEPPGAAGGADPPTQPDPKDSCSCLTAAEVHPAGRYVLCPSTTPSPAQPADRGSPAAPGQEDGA
Summary of the method: (§1)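 Enzyme, fluorescent-labeled peptide substrate and compound were mixed in 50 mM HEPES pH 7.5, 10 mM MgCl2, 1 mM EGTA, 0.01% Brij 35, 1 mM DTT at RT; ATP at each enzyme's Km started the reaction. After 60 min, EDTA quench and Eu-anti-phosphotyrosine-site antibody (30 min, dark); TR-FRET read, IC50 derived.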

TYRO3 = biological target: T2, TYRO3 (Homo sapiens, UniProt Q06418); test: TR-FRET kinase activity assay, TYRO3; format: biochemical; settings: ATP at Km, 60 minutes
T2 sequence (Q06418 41-890): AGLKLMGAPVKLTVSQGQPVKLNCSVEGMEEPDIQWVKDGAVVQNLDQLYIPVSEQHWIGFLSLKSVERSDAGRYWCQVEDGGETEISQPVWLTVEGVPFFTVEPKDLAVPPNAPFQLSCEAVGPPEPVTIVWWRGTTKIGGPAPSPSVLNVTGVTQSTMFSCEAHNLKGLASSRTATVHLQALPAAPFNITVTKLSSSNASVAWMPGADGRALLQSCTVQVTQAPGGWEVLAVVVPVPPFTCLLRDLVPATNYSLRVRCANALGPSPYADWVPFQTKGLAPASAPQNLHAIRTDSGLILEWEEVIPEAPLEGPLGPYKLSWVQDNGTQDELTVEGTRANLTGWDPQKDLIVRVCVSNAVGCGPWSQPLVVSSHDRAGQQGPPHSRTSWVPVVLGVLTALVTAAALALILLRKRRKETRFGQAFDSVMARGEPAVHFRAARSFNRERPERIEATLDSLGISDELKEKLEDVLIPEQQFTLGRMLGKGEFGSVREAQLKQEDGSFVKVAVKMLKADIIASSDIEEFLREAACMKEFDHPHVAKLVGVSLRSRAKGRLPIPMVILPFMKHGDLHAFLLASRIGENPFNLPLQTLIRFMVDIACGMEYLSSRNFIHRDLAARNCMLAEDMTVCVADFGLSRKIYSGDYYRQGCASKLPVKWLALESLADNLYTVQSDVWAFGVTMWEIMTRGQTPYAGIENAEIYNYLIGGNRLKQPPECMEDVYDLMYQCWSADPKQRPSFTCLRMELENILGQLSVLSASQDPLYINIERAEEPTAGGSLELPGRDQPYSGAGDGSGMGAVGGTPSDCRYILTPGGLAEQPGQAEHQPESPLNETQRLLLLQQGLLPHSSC
Summary of the method: as §1

Row | IC50 (AXL) | IC50 (TYRO3) | Structure (SMILES)
1 | 1000 to 10000 nM | ≤ 100 nM | CNS(=O)(=O)N[C@H]1CC[C@H](c2cnc(OC3CCOCC3)c3cnc(N[C@@H](C)COC)nc32)CC1 [Compound 317]
2 | 100 to 1000 nM | 100 to 1000 nM | COC[C@H](C)Nc1ncc2c(OC3CCOCC3)ncc(-c3ccc(CC#N)cc3)c2n1 [Compound 319]
3 | 1000 to 10000 nM | 100 to 1000 nM | COC[C@H](C)Nc1ncc2c(OC3CCOCC3)ncc(-c3cccc(C#N)c3)c2n1 [Compound 320]
4 | 1000 to 10000 nM | 1000 to 10000 nM | CN1C[C@H](Nc2ncc3c(OC4CCOCC4)ncc([C@H]4CC[C@H](O)CC4)c3n2)CC1=O [Compound 323]
5 | 1000 to 10000 nM | 1000 to 10000 nM | COC[C@H](C)Nc1ncc2c(OC3CCOCC3)ncc([C@@H]3CCCNC3)c2n1 [Compound 327]
6 | 100 to 1000 nM | 100 to 1000 nM | COC[C@H](C)Nc1ncc2c(OC3CCOCC3)ncc([C@H]3CC[C@@](O)(C(F)(F)F)CC3)c2n1 [Compound 329]
7 | 1000 to 10000 nM | 100 to 1000 nM | COC[C@H](C)Nc1ncc2c(OC3CCOCC3)ncc([C@H]3CC[C@](O)(C(F)(F)F)CC3)c2n1 [Compound 330]
8 | 1000 to 10000 nM | 100 to 1000 nM | COC[C@H](C)Nc1ncc2c(OC3CCOCC3)ncc(-c3cnn([C@H]4CCN(C)C4)c3)c2n1 [Compound 334]
9 | 1000 to 10000 nM | 100 to 1000 nM | COC[C@H](C)Nc1ncc2c(OC3CCOCC3)ncc(-c3ccc(CO)cc3)c2n1 [Compound 335]
10 | 1000 to 10000 nM | 100 to 1000 nM | C[C@H](CC(F)(F)F)Nc1ncc2c(OC3CCOCC3)ncc([C@H]3CC[C@H](O)CC3)c2n1 [Compound 338]
11 | 1000 to 10000 nM | 100 to 1000 nM | CNC(=O)N[C@H]1CC[C@H](c2cnc(OC3CCOCC3)c3cnc(N[C@@H](C)COC)nc32)CC1 [Compound 340]
12 | 100 to 1000 nM | 100 to 1000 nM | COC[C@H](C)Nc1ncc2c(OC3CCN(c4ncccn4)CC3)ncc([C@H]3CC[C@H](O)CC3)c2n1 [Compound 344]
13 | 1000 to 10000 nM | 1000 to 10000 nM | COC[C@H](C)Nc1ncc2c(OC3CCOCC3)ncc(C3CCCCN3)c2n1 (some centres unmarked) [Compound 346]
14 | 1000 to 10000 nM | 100 to 1000 nM | COC[C@H](C)Nc1ncc2c(OC3CCOCC3)ncc(-c3cn[nH]c3)c2n1 [Compound 347]
15 | 1000 to 10000 nM | ≤ 100 nM | COC[C@@H](C)Nc1ncc2c(OC3CC(O)C3)ncc([C@H]3CC[C@H](O)CC3)c2n1 (some centres unmarked) [Compound 351]
16 | 100 to 1000 nM | ≤ 100 nM | C[C@@H](CC(F)(F)F)Nc1ncc2c(OC3CCN(C)CC3)ncc([C@H]3CC[C@H](O)CC3)c2n1 [Compound 352]
17 | 1000 to 10000 nM | 100 to 1000 nM | COC[C@H](C)Nc1ncc2c(O[C@@H]3CCOC3)ncc([C@H]3CC[C@H](O)CC3)c2n1 [Compound 354]

Second part, the compound before the results:

Row | Structure (SMILES) | IC50 (AXL) | IC50 (TYRO3)
18 | CC(C)Nc1ncc2c(OC3CCOCC3)ncc(-c3cccc(S(=O)(=O)C(C)C)c3)c2n1 [Compound 318] | 100 to 1000 nM | 100 to 1000 nM
19 | CC[C@H](C)Nc1ncc2c(O[C@H]3CC[C@H](N)CC3)ncc([C@H]3CC[C@H](O)CC3)c2n1 [Compound 321] | ≤ 100 nM | ≤ 100 nM
20 | CN(C)S(=O)(=O)c1cccc(-c2cnc(OC3CCOCC3)c3cnc(NC4(C)CC4)nc23)c1 [Compound 322] | 100 to 1000 nM | 100 to 1000 nM
21 | CN1C[C@@H](Nc2ncc3c(OC4CCOCC4)ncc([C@H]4CC[C@H](O)CC4)c3n2)CC1=O [Compound 324] | 1000 to 10000 nM | 1000 to 10000 nM
22 | COC[C@H](C)Nc1ncc2c(OC3CCOCC3)ncc(-c3cccc(C(N)=O)c3)c2n1 [Compound 325] | 1000 to 10000 nM | 1000 to 10000 nM
23 | COC[C@H](C)Nc1ncc2c(OC3CCOCC3)ncc([C@H]3CCCNC3)c2n1 [Compound 326] | 100 to 1000 nM | 100 to 1000 nM
24 | COC[C@H](C)Nc1ncc2c(OC3CCOCC3)ncc(-c3cccc(S(N)(=O)=O)c3)c2n1 [Compound 328] | 1000 to 10000 nM | 100 to 1000 nM
25 | N#Cc1ccc(Nc2ncc3c(OC4CCNCC4)ncc([C@H]4CC[C@H](O)CC4)c3n2)cc1 [Compound 331] | ≤ 100 nM | ≤ 100 nM
26 | COC[C@H](C)Nc1ncc2c(OC3CCOCC3)ncc([C@H]3CCCN(C)C3)c2n1 [Compound 332] | 1000 to 10000 nM | 100 to 1000 nM
27 | COC[C@H](C)Nc1ncc2c(OC3CCOCC3)ncc([C@@H]3CCCN(C)C3)c2n1 [Compound 333] | 1000 to 10000 nM | 1000 to 10000 nM
28 | O[C@H]1CC[C@H](c2cnc(OC3CCOCC3)c3cnc(N[C@H]4CCC(F)(F)C4)nc32)CC1 [Compound 336] | 100 to 1000 nM | 100 to 1000 nM
29 | COC[C@H](C)Nc1ncc2c(OC3CCOCC3)ncc(-c3ccc(N)nc3)c2n1 [Compound 337] | 1000 to 10000 nM | 100 to 1000 nM
30 | CCC1(Nc2ncc3c(OC4CCOCC4)ncc([C@H]4CC[C@H](O)CC4)c3n2)CC1 [Compound 339] | 100 to 1000 nM | 100 to 1000 nM
31 | CNS(=O)(=O)N1CCC(c2cnc(OC3CCOCC3)c3cnc(N[C@@H](C)COC)nc23)CC1 [Compound 341] | 1000 to 10000 nM | 100 to 1000 nM
32 | COC[C@H](C)Nc1ncc2c(OC3CCOCC3)ncc(-c3ccnnc3)c2n1 [Compound 342] | 1000 to 10000 nM | 1000 to 10000 nM
33 | COC[C@H](C)Nc1ncc2c(OC3C[C@H]4CC[C@@H](C3)N4C)ncc([C@H]3CC[C@H](O)CC3)c2n1 (some centres unmarked) [Compound 343] | 100 to 1000 nM | ≤ 100 nM
34 | CNC(=O)N1CCC(c2cnc(OC3CCOCC3)c3cnc(N[C@@H](C)COC)nc23)CC1 [Compound 345] | 1000 to 10000 nM | 1000 to 10000 nM
35 | COC[C@H](C)Nc1ncc2c(C3CC3)ncc([C@H]3CC[C@H](O)CC3)c2n1 [Compound 349] | 100 to 1000 nM | ≤ 100 nM
36 | COC[C@H](C)Nc1ncc2c(OC3CCOCC3)ncc(C3CCCCN3C)c2n1 (some centres unmarked) [Compound 350] | 1000 to 10000 nM | 1000 to 10000 nM
37 | O=C(O)[C@H]1CC[C@@H](Nc2ncc3c(OC4CCOCC4)ncc([C@H]4CC[C@H](O)CC4)c3n2)CC1 [Compound 353] | 1000 to 10000 nM | 1000 to 10000 nM
